Laboratory results taken from US10597388B2, “Pyridazinone herbicides” (FMC CORPORATION, priority 2014, dated 2020).

Columns and labels:
Assay in all cases: Test D controlled growth environment herbicide test, pre- and postemergence
Assay type in all cases: in vivo
[1] = system: barley, spring (spring barley, Hordeum vulgare)
Outline: (§1)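 Rating is visual, 0–100 scale (100 = complete control), made against untreated plants 14–21 d after treatment in controlled growth conditions. Postemergence sprays went onto 1- to 4-leaf plants in peat medium; preemergence sprays onto silt loam after sowing; formulation included a surfactant.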

[2] = system: field poppy (Papaver rhoeas)
Outline: as §1

[3] = system: speedwell (bird's-eye speedwell, Veronica persica)
Outline: as §1

[4] = system: deadnettle (henbit deadnettle, Lamium amplexicaule)
Outline: as §1

[5] = system: field violet (Viola arvensis)
Outline: as §1

[6] = system: oilseed rape (Brassica napus)
Outline: as §1

[7] = system: oat, wild (wild oat, Avena fatua)
Outline: as §1

kochia (Kochia scoparia) = system: kochia (Kochia scoparia)
Outline: as §1

[8] = system: mustard, wild (wild mustard, Sinapis arvensis)
Outline: as §1

[9] = system: Russian thistle (Salsola kali)
Outline: as §1

[10] = system: radish, wild (wild radish, Raphanus raphanistrum)
Outline: as §1

[11] = system: chickweed (common chickweed, Stellaria media)
Outline: as §1

[12] = system: wheat, winter (winter wheat, Triticum aestivum)
Outline: as §1

[13] = system: chamomile (scentless chamomile, Matricaria inodora)
Outline: as §1

[14] = Postemergence, 31 g ai/ha, scale 0 to 100 (0 no effect, 100 complete control)
[15] = Postemergence, 125 g ai/ha, visual rating on scale 0 (no effect) to 100 (complete control), 14 to 21 d
[16] = Postemergence, 250 g ai/ha, scale 0 to 100 (0 no effect, 100 complete control)
[17] = Preemergence, 62 g ai/ha, scale 0 to 100 (0 no effect, 100 complete control)
[18] = Preemergence, 125 g ai/ha, scale 0 to 100 (0 no effect, 100 complete control)
[19] = Preemergence, 250 g ai/ha, scale 0 to 100, 0 no effect, 100 complete control
[20] = postemergence, 62 g ai/ha, scale 0 to 100, 0 no effect, 100 complete control

For `Cc1ccc2ccccc2c1-c1c(OC(=O)OC(C)C)c(C)nn(C)c1=O` [Compound 72], the “Barley, Spring plant response rating” value [1, 14] was 5, the “Plant response rating, Barley, Spring” value [1, 15] was 10 and the “Plant response rating, Barley, Spring” value [1, 16] was 15. For the same compound, the “Plant response rating (scale of 0 to 100), Barley, Spring” value ([1]; Preemergence, 31 g ai/ha) was 0, the “Plant response rating, Barley, Spring” value [1, 17] was 0 and the “Plant response rating, Barley, Spring” value [1, 18] was 0. For the same compound, the “Plant response rating, Barley, Spring” value [1, 19] was 60, the “Plant response rating, Barley, Spring” value [1, 20] was 5 and the “Field Poppy plant response rating” value [2, 14] was 80. The “Plant response rating, Field Poppy” value [2, 15] was 100, the “Plant response rating, Field Poppy” value [2, 16] was 100 and the “Plant response rating (scale of 0 to 100), Field Poppy” value ([2]; Preemergence, 31 g ai/ha) was 100. For the same compound, the “Plant response rating, Field Poppy” value [2, 17] was 100, the “Plant response rating, Field Poppy” value [2, 18] was 100 and the “Plant response rating, Field Poppy” value [2, 19] was 100. The “Plant response rating, Field Poppy” value [2, 20] was 90, the “Speedwell plant response rating” value [3, 14] was 75 and the “Plant response rating, Speedwell” value [3, 15] was 100. The “Plant response rating, Speedwell” value [3, 16] was 80, the “Plant response rating (scale of 0 to 100), Speedwell” value ([3]; Preemergence, 31 g ai/ha) was 5 and the “Plant response rating, Speedwell” value [3, 17] was 70. The “Plant response rating, Speedwell” value [3, 19] was 100, the “Plant response rating, Speedwell” value [3, 20] was 75 and the “Deadnettle plant response rating” value [4, 14] was 85. The “Plant response rating, Deadnettle” value [4, 15] was 100, the “Plant response rating, Deadnettle” value [4, 16] was 100 and the “Plant response rating (scale of 0 to 100), Deadnettle” value ([4]; Preemergence, 31 g ai/ha) was 5. For the same compound, the “Plant response rating, Deadnettle” value [4, 17] was 15, the “Plant response rating, Deadnettle” value [4, 18] was 65 and the “Plant response rating, Deadnettle” value [4, 19] was 70. The “Plant response rating, Deadnettle” value [4, 20] was 90, the “Field Violet plant response rating” value [5, 14] was 90 and the “Plant response rating, Field Violet” value [5, 15] was 95. The “Plant response rating, Field Violet” value [5, 16] was 95, the “Plant response rating (scale of 0 to 100), Field Violet” value ([5]; Preemergence, 31 g ai/ha) was 10 and the “Plant response rating, Field Violet” value [5, 17] was 75. For the same compound, the “Plant response rating, Field Violet” value [5, 18] was 75, the “Plant response rating, Field Violet” value [5, 19] was 95 and the “Plant response rating, Field Violet” value [5, 20] was 95. For the same compound, the “Oilseed Rape plant response rating” value [6, 14] was 65, the “Plant response rating, Oilseed Rape” value [6, 15] was 80 and the “Plant response rating, Oilseed Rape” value [6, 16] was 90. The “Plant response rating (scale of 0 to 100), Oilseed Rape” value ([6]; Preemergence, 31 g ai/ha) was 5, the “Plant response rating, Oilseed Rape” value [6, 17] was 15 and the “Plant response rating, Oilseed Rape” value [6, 18] was 15. The “Plant response rating, Oilseed Rape” value [6, 19] was 25, the “Plant response rating, Oilseed Rape” value [6, 20] was 70 and the “Oat, Wild plant response rating” value [7, 14] was 85. For the same compound, the “Plant response rating, Oat, Wild” value [7, 15] was 95, the “Plant response rating, Oat, Wild” value [7, 16] was 98 and the “Plant response rating (scale of 0 to 100), Oat, Wild” value ([7]; Preemergence, 31 g ai/ha) was 65. For the same compound, the “Plant response rating, Oat, Wild” value [7, 17] was 75, the “Plant response rating, Oat, Wild” value [7, 18] was 85 and the “Plant response rating, Oat, Wild” value [7, 19] was 95. For the same compound, the “Plant response rating, Oat, Wild” value [7, 20] was 85, the “Kochia plant response rating” value (kochia (Kochia scoparia); [14]) was 80 and the “Plant response rating, Kochia” value (kochia (Kochia scoparia); [15]) was 100. For the same compound, the “Plant response rating, Kochia” value (kochia (Kochia scoparia); [16]) was 100, the “Plant response rating (scale of 0 to 100), Kochia” value (kochia (Kochia scoparia); Preemergence, 31 g ai/ha) was 10 and the “Plant response rating, Kochia” value (kochia (Kochia scoparia); [17]) was 15. The “Plant response rating, Kochia” value (kochia (Kochia scoparia); [18]) was 10, the “Plant response rating, Kochia” value (kochia (Kochia scoparia); [19]) was 40 and the “Plant response rating, Kochia” value (kochia (Kochia scoparia); [20]) was 95. The “Mustard, Wild plant response rating” value [8, 14] was 85, the “Plant response rating, Mustard, Wild” value [8, 15] was 100 and the “Plant response rating, Mustard, Wild” value [8, 16] was 100. The “Plant response rating (scale of 0 to 100), Mustard, Wild” value ([8]; Preemergence, 31 g ai/ha) was 0, the “Plant response rating, Mustard, Wild” value [8, 17] was 25 and the “Plant response rating, Mustard, Wild” value [8, 18] was 60. For the same compound, the “Plant response rating, Mustard, Wild” value [8, 19] was 80, the “Plant response rating, Mustard, Wild” value [8, 20] was 100 and the “Russian Thistle plant response rating” value [9, 14] was 70. For the same compound, the “Plant response rating, Russian Thistle” value [9, 15] was 80, the “Plant response rating, Russian Thistle” value [9, 16] was 85 and the “Plant response rating (scale of 0 to 100), Russian Thistle” value ([9]; Preemergence, 31 g ai/ha) was 0. For the same compound, the “Plant response rating, Russian Thistle” value [9, 17] was 10, the “Plant response rating, Russian Thistle” value [9, 18] was 15 and the “Plant response rating, Russian Thistle” value [9, 19] was 25. The “Plant response rating, Russian Thistle” value [9, 20] was 75, the “Radish, Wild plant response rating” value [10, 14] was 75 and the “Plant response rating, Radish, Wild” value [10, 15] was 90. For the same compound, the “Plant response rating, Radish, Wild” value [10, 16] was 95, the “Plant response rating (scale of 0 to 100), Radish, Wild” value ([10]; Preemergence, 31 g ai/ha) was 0 and the “Plant response rating, Radish, Wild” value [10, 17] was 0. The “Plant response rating, Radish, Wild” value [10, 18] was 50, the “Plant response rating, Radish, Wild” value [10, 19] was 50 and the “Plant response rating, Radish, Wild” value [10, 20] was 80. The “Chickweed plant response rating” value [11, 14] was 98, the “Plant response rating, Chickweed” value [11, 15] was 100 and the “Plant response rating, Chickweed” value [11, 16] was 100. The “Plant response rating (scale of 0 to 100), Chickweed” value ([11]; Preemergence, 31 g ai/ha) was 70, the “Plant response rating, Chickweed” value [11, 17] was 100 and the “Plant response rating, Chickweed” value [11, 18] was 100. For the same compound, the “Plant response rating, Chickweed” value [11, 19] was 100, the “Plant response rating, Chickweed” value [11, 20] was 100 and the “Wheat, Winter plant response rating” value [12, 14] was 25. For the same compound, the “Plant response rating, Wheat, Winter” value [12, 15] was 50, the “Plant response rating, Wheat, Winter” value [12, 16] was 60 and the “Plant response rating (scale of 0 to 100), Wheat, Winter” value ([12]; Preemergence, 31 g ai/ha) was 5. For the same compound, the “Plant response rating, Wheat, Winter” value [12, 17] was 10, the “Plant response rating, Wheat, Winter” value [12, 18] was 25 and the “Plant response rating, Wheat, Winter” value [12, 19] was 45. The “Plant response rating, Wheat, Winter” value [12, 20] was 35, the “Chamomile plant response rating” value [13, 14] was 75 and the “Plant response rating, Chamomile” value [13, 15] was 85. For the same compound, the “Plant response rating, Chamomile” value [13, 16] was 100 and the “Plant response rating, Chamomile” value [13, 20] was 80.
